The test relates to P388 leukemia ip, CD2F1 mice, survival T/C. As to the kind of experiment: NCI In Vivo Anticancer Drug Screen. Data for tumor model P388 Leukemia (intraperitoneal) in CD2F1 (CDF1) mice. As to conditions: endpoint: median survival time, higher = longer survival. The method, boiled down:
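Mice carrying the transplanted tumor received test compound or vehicle. Survival was recorded in each group, and the value is the treated-group measurement divided by that of the vehicle-treated control group.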

Setting [1] is: dose: 50.0 mg/kg/injection, schedule: Q01DX009 (ip), vehicle: saline with Tween-80.
Where [2] appears, read: dose: 100.0 mg/kg/injection, schedule: Q01DX009 (ip), vehicle: saline with Tween-80.
Where [3] appears, read: dose: 200.0 mg/kg/injection, schedule: Q01DX009 (ip), vehicle: saline with Tween-80.
[4] abbreviates: dose: 12.5 mg/kg/injection, schedule: Q01DX009 (ip), vehicle: Klucel (hydroxypropylcellulose) (HPC).
Where [5] appears, read: dose: 50.0 mg/kg/injection, schedule: Q01DX009 (ip), vehicle: Klucel (hydroxypropylcellulose) (HPC).
Setting [6] is: dose: 100.0 mg/kg/injection, schedule: Q01DX009 (ip), vehicle: Klucel (hydroxypropylcellulose) (HPC).
Where [7] appears, read: dose: 50.0 mg/kg/injection, schedule: Q01DX005 (ip), vehicle: Klucel (hydroxypropylcellulose) (HPC).
Where [8] appears, read: dose: 100.0 mg/kg/injection, schedule: Q01DX005 (ip), vehicle: Klucel (hydroxypropylcellulose) (HPC).
[9] abbreviates: dose: 200.0 mg/kg/injection, schedule: Q01DX005 (ip), vehicle: Klucel (hydroxypropylcellulose) (HPC).

From PubChem BioAssay AID330 (DTP/NCI, 2004) come the findings set out here.

Structures are written as SMILES. “And” between values parts separate entries of the source, which are not always exact repeats. Equal entries are not always repeated. Inconclusive results and toxic doses are left out.

In the case of `CC[CH](C)[Sn](=[O])[c]1ccccc1` (centres undefined), the T/C by setting is: (dose: 0.39 mg/kg/injection, schedule: Q01DX009 (ip), vehicle: saline) 101 % of control; (dose: 0.79 mg/kg/injection, schedule: Q01DX009 (ip), vehicle: saline) 117 % of control; (dose: 3.12 mg/kg/injection, schedule: Q01DX009 (ip), vehicle: saline with Tween-80) 153 % of control.
As for `C=C1C(=O)C23CC1CC(O)C2C12COC(O)C1C(C)(C)CCC2OC3=O` (centres undefined), the T/C is 108 % of control (dose: 1.25 mg/kg/injection, schedule: Q01DX009 (ip), vehicle: saline with Tween-80); 99 % of control (dose: 2.5 mg/kg/injection, schedule: Q01DX009 (ip), vehicle: saline with Tween-80); 102 % of control and 120 % of control (dose: 5.0 mg/kg/injection, schedule: Q01DX009 (ip), vehicle: saline with Tween-80); 106 % of control and 115 % of control (dose: 10.0 mg/kg/injection, schedule: Q01DX009 (ip), vehicle: saline with Tween-80); 116 % of control and 118 % of control (dose: 20.0 mg/kg/injection, schedule: Q01DX009 (ip), vehicle: saline with Tween-80); 118 % of control and 124 % of control (dose: 40.0 mg/kg/injection, schedule: Q01DX009 (ip), vehicle: saline with Tween-80). Further, the T/C (dose: 80.0 mg/kg/injection, schedule: Q01DX009 (ip), vehicle: saline with Tween-80) is 89 % of control.
For `COC1=CC23CC(CC(c4cc(OC)c(OC)c(OC)c4)C2C)OC3=CC1=O` (centres undefined), the T/C by setting is: (dose: 4.38 mg/kg/injection, schedule: Q01DX005 (ip), vehicle: Klucel (hydroxypropylcellulose) (HPC)) 96 % of control; (dose: 8.75 mg/kg/injection, schedule: Q01DX005 (ip), vehicle: Klucel (hydroxypropylcellulose) (HPC)) 102 % of control; (dose: 17.5 mg/kg/injection, schedule: Q01DX005 (ip), vehicle: Klucel (hydroxypropylcellulose) (HPC)) 106 % of control.
For the compound `CC(C)NCC(O)CC(c1ccccc1)c1ccccc1` (centres undefined), the T/C is 95 % of control under setting [1] and 111 % of control under setting [2].
Turning to `CC(=O)CC(=O)N/N=C(N)/C(C#N)=N/N(C)c1ccccc1`, the T/C by setting is: (dose: 100.0 mg/kg/injection, schedule: Q04DX002 (ip), vehicle: saline with Tween-80) 97 % of control; (dose: 200.0 mg/kg/injection, schedule: Q04DX002 (ip), vehicle: saline with Tween-80) 94 % of control; (dose: 400.0 mg/kg/injection, schedule: Q04DX002 (ip), vehicle: saline with Tween-80) 96 % of control.
As to `NC(=O)n1ncnc1N`, the T/C reads like this: (dose: 50.0 mg/kg/injection, schedule: Q01DX005 (ip), vehicle: saline) 95 % of control; under setting [1], 107 % of control; (dose: 100.0 mg/kg/injection, schedule: Q01DX005 (ip), vehicle: saline) 100 % of control; under setting [2], 102 % of control; (dose: 200.0 mg/kg/injection, schedule: Q01DX005 (ip), vehicle: saline) 102 % of control; under setting [3], 100 % of control. The T/C (dose: 400.0 mg/kg/injection, schedule: Q01DX009 (ip), vehicle: saline with Tween-80) is 117 % of control.
Regarding `C=CC(COC(=O)C(C)(C)OC(C)=O)c1ccc(OC(=O)C(C)C)c(OC)c1` (centres undefined), the T/C is, setting by setting: under setting [4], 94 % of control; under setting [5], 100 % of control; under setting [6], 102 % of control.
As to `Cc1cc2c(c(C(C)(C)C)c1)OC(=O)/C2=C1/C(=O)Oc2c1cc(C)cc2C(C)(C)C`, the T/C reads like this: (dose: 1.87 mg/kg/injection, schedule: Q01DX005 (ip), vehicle: Klucel (hydroxypropylcellulose) (HPC)) 112 % of control; (dose: 3.75 mg/kg/injection, schedule: Q01DX005 (ip), vehicle: Klucel (hydroxypropylcellulose) (HPC)) 101 % of control; (dose: 7.5 mg/kg/injection, schedule: Q01DX005 (ip), vehicle: Klucel (hydroxypropylcellulose) (HPC)) 94 % of control; (dose: 60.0 mg/kg/injection, schedule: Q01DX005 (ip), vehicle: Klucel (hydroxypropylcellulose) (HPC)) 90 % of control.
`Cc1cccc([B-]23OCC[N+]2(CNC(=O)C2=C(O)C4(O)C(=O)C5=C(O)c6c(O)cccc6C(C)(O)C5CC4C(N(C)C)C2=O)CCO3)c1` (centres undefined): the T/C is 97 % of control under setting [7], 111 % of control under setting [8] and 118 % of control under setting [9].
As to `CN1CCS(=O)(=O)C2CCCCC2C1=O` (centres undefined), the T/C is, setting by setting: under setting [1], 96 % of control; under setting [2], 104 % of control; under setting [3], 96 % of control.
Take `CCN(CC)CCCNc1cc(C)nc2c1ccc1c2ccc2c(NCCCN(CC)CC)cc(C)nc21`: the T/C by setting is: (dose: 12.5 mg/kg/injection, schedule: Q01DX009 (ip), vehicle: water) 105 % of control; (dose: 25.0 mg/kg/injection, schedule: Q01DX009 (ip), vehicle: water) 103 % of control; (dose: 50.0 mg/kg/injection, schedule: Q01DX009 (ip), vehicle: water) 116 % of control.
For `N#CCC(=O)NCc1ccncc1`, the T/C is, setting by setting: (dose: 25.0 mg/kg/injection, schedule: Q01DX009 (ip), vehicle: saline) 110 % of control; (dose: 50.0 mg/kg/injection, schedule: Q01DX009 (ip), vehicle: saline) 100 % of control; (dose: 100.0 mg/kg/injection, schedule: Q01DX009 (ip), vehicle: saline) 108 % of control; (dose: 200.0 mg/kg/injection, schedule: Q01DX009 (ip), vehicle: saline) 110 % of control; (dose: 400.0 mg/kg/injection, schedule: Q01DX009 (ip), vehicle: saline) 101 % of control.
`O=C1NN2CCN=C2c2ccccc21`: the T/C by setting is: (dose: 60.0 mg/kg/injection, schedule: Q01DX005 (ip), vehicle: saline with Tween-80) 100 % of control; (dose: 120.0 mg/kg/injection, schedule: Q01DX005 (ip), vehicle: saline with Tween-80) 104 % of control; (dose: 240.0 mg/kg/injection, schedule: Q01DX005 (ip), vehicle: saline with Tween-80) 103 % of control.
For `CCC(=O)Nc1nnc(SCCCCCCCCCCSc2nnc(NC(=O)CC)s2)s1`, the T/C runs as follows: under setting [7], 89 % of control; under setting [8], 91 % of control; under setting [9], 87 % of control.
In the case of `CC#CC#C/C(=C/C=CC(=O)OC)SC`, the T/C is 110 % of control under setting [4]; 106 % of control (dose: 25.0 mg/kg/injection, schedule: Q01DX009 (ip), vehicle: Klucel (hydroxypropylcellulose) (HPC)); 101 % of control under setting [5]; 104 % of control under setting [6].
Turning to `CC(C)(C#N)Nc1ccccc1`, the T/C was 87 % of control (dose: 3.13 mg/kg/injection, schedule: Q04DX003 (ip), vehicle: saline with Tween-80); 100 % of control and 95 % of control (dose: 6.25 mg/kg/injection, schedule: Q04DX003 (ip), vehicle: saline with Tween-80); 100 % of control (dose: 12.5 mg/kg/injection, schedule: Q04DX003 (ip), vehicle: saline with Tween-80); 100 % of control (dose: 25.0 mg/kg/injection, schedule: Q04DX003 (ip), vehicle: saline with Tween-80).
Consider `C/C=C1/CN2C3CC45c6ccccc6N(C)C4C2CC1C3C5O` (centres undefined), for which the T/C (dose: 50.0 mg/kg/injection, schedule: Q01DX005 (ip), vehicle: saline with Tween-80) was 98 % of control and the T/C (dose: 100.0 mg/kg/injection, schedule: Q01DX005 (ip), vehicle: saline with Tween-80) was 97 % of control.
On to `O=S1(=O)CS(=O)(=O)OCCO1`, for which the T/C is 124 % of control (dose: 3.12 mg/kg/injection, schedule: Q01DX005 (ip), vehicle: Klucel (hydroxypropylcellulose) (HPC)); 155 % of control (dose: 6.25 mg/kg/injection, schedule: Q01DX005 (ip), vehicle: Klucel (hydroxypropylcellulose) (HPC)); 162 % of control and 165 % of control (dose: 9.0 mg/kg/injection, schedule: Q01DX005 (ip), vehicle: Klucel (hydroxypropylcellulose) (HPC)); 216 % of control (dose: 12.5 mg/kg/injection, schedule: Q01DX005 (ip), vehicle: Klucel (hydroxypropylcellulose) (HPC)); 191 % of control (2×) and 200 % of control (dose: 14.0 mg/kg/injection, schedule: Q01DX005 (ip), vehicle: Klucel (hydroxypropylcellulose) (HPC)); 267 % of control and 270 % of control (dose: 25.0 mg/kg/injection, schedule: Q01DX005 (ip), vehicle: Klucel (hydroxypropylcellulose) (HPC)). For the same compound, the T/C (dose: 75.0 mg/kg/injection, schedule: Q01DX005 (ip), vehicle: Klucel (hydroxypropylcellulose) (HPC)) was 207 % of control and 588 % of control.
